Results taken from publication PMC12650660, “Novel Synthetic Strategies Towards Analogues of Cadaside and Malacidin Antibiotic Peptides” (Biomolecules, 2025).
≈ marks a conversion by molar mass, not a printed value. Entries after “also recorded” stand apart in the source; their conditions may differ. Like-named read-outs stand apart in the source and are kept apart here. Numbered stars: 1 amine (or outer) side, 2 acyl side, 3 side chain; on linkers, the order of the positions; unused ones are H or OH. Bridge positions count the residues as written; N and C are the ends. Square brackets hold non-standard residues; d marks the D form. Peptide text beside a SMILES is read from it. * marks the point of attachment. β2hAla(R) = C[C@H](CN[*:1])C(=O)[*:2]; Decanoyl = CCCCCCCCCC(=O)*; Dap = NC[C@H](N)C(=O)O; Sar = CNCC(=O)O

Assays:
B. subtilis 168 = format: cell-based
Protocol: MICs were measured in triplicate by microbroth dilution. An overnight culture of B. subtilis 168 (DSMZ German Collection of Microorganisms and Cell Cultures GmbH) was inoculated at 5 × 10^5 CFU/mL in cation-adjusted Mueller–Hinton broth (MHB II) with or without 15 mM or 100 mM CaCl2. Serial two-fold peptide dilutions (128 - 1 µg/mL for analogues and 16 - 0.25 µg/mL for daptomycin) were incubated in polypropylene U-bottom 96-well plates (200 µL final volume) at 37 °C for 24 h. MIC was the lowest concentration at which no growth was observed. Optical density measurements at 620 nm were performed using a Thermo Scientific Multiskan FC (Thermo Fisher Scientific Inc., Paisley, UK). MIC was determined from the lowest concentration at which no tubidity was observed, using an untreated positive growth control, and a broth-only sterility control as references.

[1] = TLC precursor-binding assay with lipid II; set-up: key to Lipid II (TLC binding): “+” indicates binding confirmed; “-” indicates no binding; “~” indicates potential binding with absence of precursor band; conditions: for Lipid II (TLC binding): peptide 0.5, 1, 2 equiv. (nisin 0.1, 0.5, 1 equiv.) with lipid II in Tris·HCl pH 7.5, 50 mM CaCl2, 1 h, silica TLC; for binding to lipid II in TLC assay (in words): lipid II spot on TLC after incubation, PMA staining in Figure S6
Protocol: (§1) Lipid II and undecaprenyl phosphate (C55-P) (1 equiv., 30 µL) in Tris•HCl buffer (0.2% Triton X-100, 26 mM MgCl2, and 50 mM CaCl2 at pH 7.5) were incubated with the peptides (0.5, 1, 2 equiv.) or nisin (0.1, 0.5, 1 equiv.) in 30 µL water for 1 h. The reaction was then extracted with ^tBuOH/6 M PyOAc (2/1 v/v, 100 µL) and the organic phase was dried using an Eppendorf vacuum centrifuge 5301 (Fisher Scientific, Loughborough, UK) under reduced pressure. The solid was redissolved in CHCl3/MeOH (1/1 v/v, 30–60 µL) for spotting onto the TLC plates. In addition to the peptide–lipid mixtures, a control of each peptide/nisin with 30 µL buffer, and a control of each lipid with 30 µL HPLC-grade water were also incubated and subjected to the same workup. Silica TLC plates were run in a CHCl3/MeOH/H2O/NH3 (88/48/10/1 v/v) solvent system and stained using iodine vapour, phosphomolybdic acid (PMA), or KMnO4 stain, as well as visualisation at 254 nm and 365 nm.

[2] = TLC precursor-binding assay with C55-P; set-up: key to C55-P (TLC binding): “+” indicates binding confirmed; “-” indicates no binding; “~” indicates potential binding with absence of precursor band; conditions: for C55-P spot on TLC after incubation with peptide (in words): absence of C55-P spot = potential indicator of binding, KMnO4 staining in Figure S5; for C55-P (TLC binding): peptide 0.5, 1, 2 equiv. with C55-P in Tris·HCl pH 7.5, 50 mM CaCl2, 1 h, silica TLC
Protocol: as §1

Compound | MIC + Ca^2+ (B. subtilis 168; 168, 24 h) [µg/mL] | MIC − Ca^2+ (B. subtilis 168; 168, 24 h) [µg/mL] | Lipid II (TLC binding) [1] | C55-P spot on TLC after incubation with peptide (in words) [2] | C55-P (TLC binding) [2] | MIC − Ca^2+ (B. subtilis 168; B. subtilis 168, MHB II with 0 mM CaCl2, 5 × 10^5 CFU/mL, 37 °C, 24 h, two-fold dilution series, triplicate) [µg/mL] | decrease in activity in the absence of calcium (B. subtilis 168; B. subtilis 168, MIC without Ca versus with 15 or 100 mM Ca) | binding to lipid II in TLC assay (in words) [1]
CCCCCCCCCC(=O)NC[C@@H](C)C(=O)NCC(=O)N[C@H](CCC(=O)O)C(=O)N[C@@H](Cc1ccc(O)cc1)C(=O)N[C@@H]1C(=O)N[C@H]([C@H](C)CC)C(=O)N[C@@H](CC(=O)O)C(=O)N[C@@H](CC(=O)O)C(=O)N2CCC[C@H]2C(=O)NCC(=O)N[C@H](CCC(=O)O)C(=O)NCC(=O)N[C@@H](CCC(=O)O)C(=O)N(C)CC(=O)O[C@@H]1C [Peptide C9] (Decanoyl-[β2hAla(R)]G[dE]YT[dI]DDPG[dE]GE[Sar]; ester 5-C) | 128 | 128 (≈ 81.3 µM) | - | a lack of binding | - |  |  | 
CCCCCCCCCC(=O)N[C@@H](Cc1c[nH]c2ccccc12)C(=O)N[C@H](CC(N)=O)C(=O)N[C@@H](CC(=O)O)C(=O)N[C@@H]1C(=O)NCC(=O)N[C@@H](CCCN)C(=O)N[C@@H](CC(=O)O)C(=O)N[C@H](C)C(=O)N[C@@H](CC(=O)O)C(=O)NCC(=O)N[C@H](CO)C(=O)N[C@@H]([C@H](C)CC(=O)O)C(=O)N[C@@H](CC(=O)c2ccccc2N)C(=O)O[C@@H]1C [Daptomycin, reference compound] |  |  | - | a lack of binding | - | 16 (≈ 9.87 µM) | 16- to 32 fold | 
CCCCCCCCCC(=O)NC[C@@H](C)C(=O)NCC(=O)N[C@H](CCC(=O)O)C(=O)N[C@@H](Cc1ccc(O)cc1)C(=O)N[C@@H]1C(=O)N[C@H]([C@H](C)CC)C(=O)N[C@@H](CC(=O)O)C(=O)N[C@@H](CC(=O)O)C(=O)N2CCC[C@H]2C(=O)NCC(=O)N[C@H](CCC(=O)O)C(=O)N[C@@H](CCC(=O)O)C(=O)N(C)CC(=O)O[C@@H]1C [Peptide C1b] (Decanoyl-[β2hAla(R)]G[dE]YT[dI]DDPG[dE]E[Sar]; ester 5-C) | 128 |  | - | no longer visible | ~ |  |  | 
CCCCCCCCCC(=O)NC[C@@H](C)C(=O)NCC(=O)N[C@H](CCC(=O)O)C(=O)N[C@@H](Cc1ccc(O)cc1)C(=O)N[C@@H]1C(=O)N[C@H]([C@H](C)CC)C(=O)N[C@@H](CC(=O)O)C(=O)N[C@@H](CC(=O)O)C(=O)N2CCC[C@H]2C(=O)NCC(=O)N[C@@H](CCC(=O)O)C(=O)N[C@@H](CCC(=O)O)C(=O)N(C)CC(=O)O[C@@H]1C [Peptide C2c] (Decanoyl-[β2hAla(R)]G[dE]YT[dI]DDPGEE[Sar]; ester 5-C) |  |  | - | no longer visible |  |  |  | 
CCCCCCCCCC(=O)NC[C@@H](C)C(=O)NCC(=O)N[C@H](CCC(=O)O)C(=O)N[C@@H](Cc1ccc(O)cc1)C(=O)N[C@@H]1C(=O)N[C@H]([C@H](C)CC)C(=O)N[C@@H](CC(=O)O)C(=O)N[C@@H](CC(=O)O)C(=O)N2CCC[C@H]2C(=O)NCC(=O)N[C@H](CCC(=O)O)C(=O)N[C@@H](CC(=O)O)C(=O)N(C)CC(=O)O[C@@H]1C [Peptide C7a] (Decanoyl-[β2hAla(R)]G[dE]YT[dI]DDPG[dE]D[Sar]; ester 5-C) | 128 | 128 (≈ 85.2 µM) | - |  | - |  |  | lack of binding
CCCCCCCCCC(=O)NC[C@@H](C)C(=O)NCC(=O)N[C@H](CCC(=O)O)C(=O)N[C@@H](Cc1ccc(O)cc1)C(=O)N[C@@H]1C(=O)N[C@H]([C@H](C)CC)C(=O)N[C@@H](CC(=O)O)C(=O)N[C@@H](CC(=O)O)C(=O)N2CCC[C@H]2C(=O)NCC(=O)N[C@@H](CCC(=O)O)C(=O)N[C@@H](CCC(=O)O)C(=O)N(C)CC(=O)O[C@@H]1C [Peptide C2a] (Decanoyl-[β2hAla(R)]G[dE]YT[dI]DDPGEE[Sar]; ester 5-C) | 128 | 128 (≈ 84.4 µM) | - | no longer visible | ~ |  |  | 
CCCCCCCCCC(=O)NC[C@@H](C)C(=O)NCC(=O)N[C@H](CCC(=O)O)C(=O)N[C@@H](Cc1ccc(O)cc1)C(=O)N[C@@H]1C(=O)N[C@H]([C@H](C)CC)C(=O)N[C@@H](CC(=O)O)C(=O)N[C@@H](CC(=O)O)C(=O)N2CCC[C@H]2C(=O)NCC(=O)N[C@@H](CC(=O)O)C(=O)N[C@@H](CCC(=O)O)C(=O)N(C)CC(=O)O[C@@H]1C [Peptide C6] (Decanoyl-[β2hAla(R)]G[dE]YT[dI]DDPGDE[Sar]; ester 5-C) | 128 | 128 (≈ 85.2 µM) | - | no longer visible | ~ |  |  | 
CCCCCCCCCC(=O)N[C@@H](CC(=O)O)C(=O)N[C@H]1CNC(=O)[C@@H]2CCCN2C(=O)[C@H](C(C)C)NC(=O)CNC(=O)[C@H](CC(=O)O)NC(=O)CNC(=O)[C@H](CC(=O)O)NC(=O)[C@H](CC(=O)O)NC(=O)[C@H](CCCCN)NC(=O)[C@@H](C(C)C)NC1=O [Peptide M5] (Decanoyl-D[Dap][dV]KDDGDGVP; lactam 2-C) | 128 | 128 (≈ 103 µM) | - |  | - |  |  | 
CCCCCCCCCC(=O)N[C@@H](CC(=O)O)C(=O)N[C@H]1CNC(=O)[C@@H]2CCCN2C(=O)[C@H](C(C)C)NC(=O)[C@@H](CC(=O)O)NC(=O)CNC(=O)[C@H](CC(=O)O)NC(=O)CNC(=O)[C@H](CC(=O)O)NC(=O)[C@H](CCCCN)NC(=O)[C@@H](C(C)C)NC1=O [Peptide M2] (Decanoyl-D[Dap][dV]KDGDG[dD]VP; lactam 2-C) | 128 | 128 (≈ 103 µM) | - |  | - |  |  | 
CCCCCCCCCC(=O)N[C@@H](CC(=O)O)C(=O)N[C@H]1CNC(=O)[C@@H]2CCCN2C(=O)[C@H](C(C)C)NC(=O)[C@@H](CC(=O)O)NC(=O)CNC(=O)[C@H](CC(=O)O)NC(=O)[C@H](CC(=O)O)NC(=O)[C@H](CCCCN)NC(=O)[C@@H](C(C)C)NC1=O [Peptide M1] (Decanoyl-D[Dap][dV]KDDG[dD]VP; lactam 2-C) | 128 | 128 (≈ 108 µM) | - |  | - |  |  | 
CCCCCCCCCC(=O)NC[C@@H](C)C(=O)NCC(=O)N[C@H](CCC(=O)O)C(=O)N[C@@H](Cc1ccc(O)cc1)C(=O)N[C@@H]1C(=O)N[C@H]([C@H](C)CC)C(=O)N[C@@H](CC(=O)O)C(=O)N[C@@H](CC(=O)O)C(=O)N2CCC[C@H]2C(=O)NCC(=O)N[C@H](CCC(=O)O)C(=O)N[C@@H](CC(=O)O)C(=O)N(C)CC(=O)O[C@@H]1C [Peptide C7b] (Decanoyl-[β2hAla(R)]G[dE]YT[dI]DDPG[dE]D[Sar]; ester 5-C) | 128 |  |  |  |  |  |  | 
CCCCCCCCCC(=O)NC[C@@H](C)C(=O)NCC(=O)N[C@H](CCC(=O)O)C(=O)N[C@@H](Cc1ccc(O)cc1)C(=O)N[C@@H]1C(=O)N[C@H]([C@H](C)CC)C(=O)N[C@@H](CC(=O)O)C(=O)N[C@@H](CC(=O)O)C(=O)N2CCC[C@H]2C(=O)NCC(=O)N[C@@H](CCC(=O)O)C(=O)N[C@@H](CCC(=O)O)C(=O)N(C)CC(=O)O[C@@H]1C [Peptide C2b] (Decanoyl-[β2hAla(R)]G[dE]YT[dI]DDPGEE[Sar]; ester 5-C) |  |  | - | no longer visible |  |  |  | 
Nisin [reference compound] |  |  | + |  |  |  |  | nisin-lipid II binding; also recorded: Positive binding
